Key:
Type in all cases: in vivo
[1] = test system: Alternaria solani; assay: Test F: tomato early blight, preventive spray on tomato seedlings; settings: 120 h, 100 = 100% disease control, 0 = no control, read-out: Test F disease control rating
From the text: (§1) General protocol for preparing test suspensions for Tests A-F: the test compounds were first dissolved in acetone in an amount equal to 3% of the final volume and then suspended at the desired concentration (in ppm) in acetone and purified water (50/50 mix by volume) containing 250 ppm of the surfactant PEG400 (polyhydric alcohol esters). The resulting test suspensions were then used in Tests A-F.
(§2) The test suspension was sprayed to the point of run-off on tomato seedlings. The following day the seedlings were inoculated with a spore suspension of Alternaria solani (the causal agent of tomato early blight) and incubated in a saturated atmosphere at 27° C. for 48 h, and then moved to a growth chamber at 20° C. for 3 days, after which time visual disease ratings were made.
(§3) A rating of 100 indicates 100% disease control and a rating of 0 indicates no disease control (relative to the controls). A dash (−) indicates the compound was not tested.

[2] = test system: Phakopsora pachyrhizi; assay: Test D: Asian soybean rust, preventive spray on soybean seedlings; settings: 216 h, 100 = 100% disease control, 0 = no control, read-out: Test D disease control rating
From the text: as §1
The test solution was sprayed to the point of run-off on soybean seedlings. The following day the seedlings were inoculated with a spore suspension of Phakopsora pachyrhizi (the causal agent of Asian soybean rust) and incubated in a saturated atmosphere at 22° C. for 24 h and then moved to a growth chamber at 22° C. for 8 days, after which time visual disease ratings were made.
as §3

[3] = test system: Botrytis cinerea; assay: Test E: tomato Botrytis, preventive spray on tomato seedlings; settings: 120 h, 100 = 100% disease control, 0 = no control, read-out: Test E disease control rating
From the text: as §1
as §2, with “Botrytis cinerea” for “Alternaria solani”, “Botrytis)” for “early blight)”, “20°” for “27°”, “24°” for “20°”
as §3

[4] = test system: Puccinia recondita f. sp. tritici; assay: Test B: wheat leaf rust, preventive spray on wheat seedlings; settings: 192 h, 100 = 100% disease control, 0 = no control, read-out: Test B disease control rating
From the text: as §1
The test solution was sprayed to the point of run-off on wheat seedlings. The following day the seedlings were inoculated with a spore suspension of Puccinia recondita f. sp. tritici (the causal agent of wheat leaf rust) and incubated in a saturated atmosphere at 20° C. for 24 h, and then moved to a growth chamber at 20° C. for 7 days, after which time disease ratings were made.
as §3

[5] = test system: Septoria tritici; assay: Test A: wheat leaf blotch, preventive spray on wheat seedlings; settings: Zymoseptoria tritici, 456 h, 100 = 100% disease control, 0 = no control, read-out: Test A disease control rating
From the text: as §1
The test solution was sprayed to the point of run-off on wheat seedlings. The following day the seedlings were inoculated with a spore suspension of Septoria tritici (the causal agent of wheat leaf blotch) and incubated in a saturated atmosphere at 24° C. for 48 h, and then moved to a growth chamber at 20° C. for 17 days, after which time disease ratings were made.
as §3

Compound	pest or weed control at 50 ppm [1] [%]	pest or weed control at 50 ppm [2] [%]	pest or weed control at 50 ppm [3] [%]	pest or weed control at 50 ppm [4] [%]	pest or weed control at 50 ppm [5] [%]	pest or weed control at 10 ppm [1] [%]	pest or weed control at 10 ppm [2] [%]	pest or weed control at 10 ppm [3] [%]	pest or weed control at 10 ppm [4] [%]	pest or weed control at 10 ppm [5] [%]
Cc1nn(C)c(Nc2c(F)cccc2[N+](=O)[O-])c1-c1c(F)cc(F)cc1Br [Compound 1, 4-(2-bromo-4,6-difluorophenyl)-N-(2-fluoro-6-nitrophenyl)-1,3-dimethyl-1H-pyrazol-5-amine]	99	84	100	100	100	–	–	–	–	–
Cc1nn(C)c(Nc2c(Cl)cc(F)cc2[N+](=O)[O-])c1-c1ccc(C#N)cc1Cl [Compound 18, 3-chloro-4-[5-[(2-chloro-4-fluoro-6-nitrophenyl)amino]-1,3-dimethyl-1H-pyrazol-4-yl]benzonitrile]	99	92	100	100	100	–	–	–	–	–
Cc1nn(C)c(Nc2c(Cl)cc(F)cc2[N+](=O)[O-])c1-c1ccc(F)cc1Cl [Compound 19, N-(2-chloro-4-fluoro-6-nitrophenyl)-4-(2-chloro-4-fluorophenyl)-1,3-dimethyl-1H-pyrazol-5-amine]	99	98	100	100	100	–	–	–	–	–
COc1cc(F)c(Nc2c(-c3c(F)cccc3Cl)c(C)nn2C)c([N+](=O)[O-])c1 [Compound 23, 4-(2-chloro-6-fluorophenyl)-N-(2-fluoro-4-methoxy-6-nitrophenyl)-1,3-dimethyl-1H-pyrazol-5-amine]	99	99	97	100	100	–	–	–	–	–
COc1cc(F)c(Nc2c(-c3ccc(F)cc3F)c(C)nn2C)c([N+](=O)[O-])c1 [Compound 57, 4-(2,4-difluorophenyl)-N-(2-fluoro-4-methoxy-6-nitrophenyl)-1,3-dimethyl-1H-pyrazol-5-amine]	100	96	100	100	100	–	–	–	–	–
Cc1nn(C)c(Nc2c(F)cccc2[N+](=O)[O-])c1-c1ccc(F)cc1Br [Compound 60, 4-(2-bromo-4-fluorophenyl)-N-(2-fluoro-6-nitrophenyl)-1,3-dimethyl-1H-pyrazol-5-amine]	99	97	99	100	100	75	0	99	100	99
Cc1nn(C)c(Nc2c(F)cc(Br)cc2[N+](=O)[O-])c1-c1ccc(F)cc1Cl [Compound 61, N-(4-bromo-2-fluoro-6-nitrophenyl)-4-(2-chloro-4-fluorophenyl)-1,3-dimethyl-1H-pyrazol-5-amine]	99	84	99	100	100	–	–	–	–	–
Cc1nn(C)c(Nc2c(F)cccc2[N+](=O)[O-])c1-c1c(F)cc(F)cc1Cl [Compound 68, 4-(2-chloro-4,6-difluorophenyl)-N-(2-fluoro-6-nitrophenyl)-1,3-dimethyl-1H-pyrazol-5-amine]	99	99	100	100	100	98	32	100	100	100
CCc1nn(C)c(Nc2c(F)cccc2[N+](=O)[O-])c1-c1ccc(F)cc1Cl [Compound 72, 4-(2-chloro-4-fluorophenyl)-N-(2-fluoro-6-nitrophenyl)-3-ethyl-1-methyl-1H-pyrazol-5-amine]	99	31	98	100	100	63	12	98	85	100
COc1ccc(-c2c(C)nn(C)c2Nc2c(Cl)cc(F)cc2[N+](=O)[O-])c(Cl)c1 [Compound 73, N-(2-chloro-4-fluoro-6-nitrophenyl)-4-(2-chloro-4-methoxyphenyl)-1,3-dimethyl-1H-pyrazol-5-amine]	97	98	99	100	100	–	–	–	–	–
Cc1cc(F)c(Nc2c(-c3ccc(F)cc3Cl)c(C)nn2C)c([N+](=O)[O-])c1 [Compound 93, 4-(2-chloro-4-fluorophenyl)-N-(2-fluoro-4-methyl-6-nitrophenyl)-1,3-dimethyl-1H-pyrazol-5-amine]	99	100	100	100	100	99	87	99	100	99
Cc1nn(C)c(Nc2ccc(F)cc2[N+](=O)[O-])c1-c1ccc(F)cc1Cl [Compound 111, 4-(2-chloro-4-fluorophenyl)-N-(4-fluoro-2-nitrophenyl)-1,3-dimethyl-1H-pyrazol-5-amine]	93	0	100	99	100	–	–	–	–	–
Cc1nn(C)c(Nc2c(F)cccc2[N+](=O)[O-])c1-c1ccc(C#N)cc1Cl [Compound 113, 3-chloro-4-[5-[(2-fluoro-6-nitrophenyl)amino]-1,3-dimethyl-1H-pyrazol-4-yl]benzonitrile]	99	13	99	99	100	–	–	–	–	–
Cc1nn(C)c(Nc2c(F)cccc2[N+](=O)[O-])c1-c1ccc(F)cc1F [Compound 118, 4-(2,4-difluorophenyl)-N-(2-fluoro-6-nitrophenyl)-1,3-dimethyl-1H-pyrazol-5-amine]	99	0	100	100	100	60	0	99	80	100
Cc1nn(C)c(Nc2c(F)cc(Cl)cc2[N+](=O)[O-])c1-c1ccc(F)cc1Cl [Compound 121, N-(4-chloro-2-fluoro-6-nitrophenyl)-4-(2-chloro-4-fluorophenyl)-1,3-dimethyl-1H-pyrazol-5-amine]	100	99	100	100	100	–	–	–	–	–
Cc1cc(F)c(Nc2c(-c3ccc(C#N)cc3Cl)c(C)nn2C)c([N+](=O)[O-])c1 [Compound 127, 3-chloro-4-[5-[(2-fluoro-4-methyl-6-nitrophenyl)amino]-1,3-dimethyl-1H-pyrazol-4-yl]benzonitrile]	100	96	100	99	100	–	–	–	–	–
